Our source for the cytotoxicity values is ChEMBL document CHEMBL3507680, “University of Dundee, Gates Library screen for HepG2 cell viability”.

The data set can be described thus: Human HepG2 cell viability assay in 384 well format. Type of data set: toxicity, cell-based. Set-up: dose 125 nL, time 70.5 hour; concentration not given beside the values. The following applies: HepG2 cells, read-out: Inhibition.

The structures appear in SMILES notation.

For the molecule `CN(Cc1ccccc1O)C(=O)Nc1cc(F)cc(N2CCCC2)c1`, the cytotoxicity at 70.5 h was -7.37%.

As to `O=C(Cc1ccccc1O)Nc1ccc(N2CCCC2)nc1`, the cytotoxicity at 70.5 h was -10.3%.

For `Cc1cc(CS(=O)(=O)NCC2CCCCC2)on1`, the cytotoxicity at 70.5 h was determined as 0.508%.

In the case of `COCCS(=O)(=O)NCC(C)c1cccc(C)c1` (configuration not stated), the cytotoxicity at 70.5 h is -3.93%.

With `CN(Cc1cnccn1)C(=O)Nc1cc(F)cc(N2CCCC2)c1`, the cytotoxicity at 70.5 h was -5.64%.

As to `Cc1cc(C(=O)NCC(=O)NC(c2ncccc2C)C(C)C)c(C)o1` (configuration not stated), the cytotoxicity at 70.5 h amounted to 3.7%.

As for `CN1CCc2c(NC(=O)NCc3ccccc3Cl)cccc21`, the cytotoxicity at 70.5 h was -1.74%.

`Cc1cc(N2CCC(NC(=O)CCc3cnn(C)c3)CC2)nc(C)n1`: the cytotoxicity at 70.5 h is -4.77%.

Turning to `C[C@@H]1CN(C(=O)c2ccc(Br)cc2F)CC(C(N)=O)O1` (some centres not stated), the cytotoxicity at 70.5 h is -4.88%.

Take `COc1cc(C)c(NC(=O)NCCn2cccc2)cc1OC`: the cytotoxicity at 70.5 h came out at 10.3%.

In the case of `Cc1cccc(NS(=O)(=O)c2cnn(C)c2)c1C#N`, the cytotoxicity at 70.5 h was -12.8%.

Turning to `Cc1c(CNC(=O)Nc2cccc3c2CCN3C)cnn1C`, the cytotoxicity at 70.5 h is -3.95%.

Consider `N#Cc1ccc(S(=O)(=O)Nc2ccccc2C#N)cn1`, for which the cytotoxicity at 70.5 h was -6%.

On to `COCCCS(=O)(=O)N1CCN(C(=O)CO)CC1`, for which the cytotoxicity at 70.5 h was -0.333%.

As for `CC(C)OCCC(=O)N(C)c1ccc(F)c(Cl)c1`, the cytotoxicity at 70.5 h is -4.66%.

On to `CCn1cc(C2CCN(Cc3ccnc(N(C)C)c3)CC2)cn1`, for which the cytotoxicity at 70.5 h is -4.12%.

On to `c1csc(-c2noc(CC3CCCO3)n2)c1` (configuration not stated), for which the cytotoxicity at 70.5 h stood at 6.86%.

On to `CN(C)S(=O)(=O)c1ccc(CNc2ccc(Cl)cn2)cc1`, for which the cytotoxicity at 70.5 h was determined as 0.742%.

`CCCn1ccc2cc(NC(=O)CC3CCCO3)ccc21` (configuration not stated): the cytotoxicity at 70.5 h was -5.13%.

For `CC(C)C(=O)N1CCN(CC(O)c2cc(Cl)ccc2Cl)CC1` (configuration not stated), the cytotoxicity at 70.5 h is -7.34%.

In the case of `OC(CN1CCOCC1)c1cc(Cl)ccc1Cl` (configuration not stated), the cytotoxicity at 70.5 h is 9.36%.

As for `CN1CCCN(C(=O)c2ccn3ccnc3c2)CC1`, the cytotoxicity at 70.5 h worked out at 6.21%.

Regarding `O=C(c1ccncc1)N1CCCC1c1cccc(Br)c1` (configuration not stated), the cytotoxicity at 70.5 h worked out at 21.6%.

Regarding `O=C(c1ccnc(NC2CC2)c1)N1CCCC1c1cccc(Br)c1` (configuration not stated), the cytotoxicity at 70.5 h is -6.56%.

On to `CCc1cccc(OCC(=O)NC(C)c2nnc3n2CCC3)c1` (configuration not stated), for which the cytotoxicity at 70.5 h is -3.83%.

For the molecule `Cc1cccc(C)c1OCC(=O)NC(C)c1nnc2n1CCC2` (configuration not stated), the cytotoxicity at 70.5 h was -7.81%.

In the case of `CCN(C(=O)CCc1ccc2c(c1)OCO2)C1CC(=O)NC1=O` (configuration not stated), the cytotoxicity at 70.5 h was found to be 6.1%.

As for `CC(NC(=O)COc1ccccc1Cl)c1nnc2n1CCC2` (configuration not stated), the cytotoxicity at 70.5 h was -6.92%.

Regarding `CN(C)C(=O)C1CSCN1C(=O)CCc1ccco1` (configuration not stated), the cytotoxicity at 70.5 h was -8.81%.

For `COCCNC(=O)N1CCN(C(=O)Cc2ccccc2F)CC1`, the cytotoxicity at 70.5 h is -8.11%.

For the molecule `CC(C)c1nnc2n1CCN(Cc1nc3c(F)cccc3[nH]1)C2`, the cytotoxicity at 70.5 h was -5.06%.

Turning to `CN(CCc1cccs1)C(=O)Nc1cccc(S(C)(=O)=O)c1`, the cytotoxicity at 70.5 h is -2.36%.

In the case of `COCC(C)(NC(=O)c1cc(Cl)c(-n2cccc2)cc1OC)C(N)=O` (configuration not stated), the cytotoxicity at 70.5 h is -2.57%.

`Fc1cccc2[nH]c(CN3CCn4c(nnc4C4CC4)C3)nc12`: the cytotoxicity at 70.5 h stood at 1.58%.

Consider `Cc1nc(S(=O)(=O)N2CCSCC2)cn1C`, for which the cytotoxicity at 70.5 h was -2.15%.

With `Cn1cnc(S(=O)(=O)N2CCSC3(CCCCC3)C2)c1`, the cytotoxicity at 70.5 h was 4.34%.

On to `O=C(c1c(O)cnc2ccccc12)N1CCN(CC(F)F)CC1`, for which the cytotoxicity at 70.5 h is -3.97%.

In the case of `CN(C)C(=O)N1CCN(C(=O)c2ccn3cncc3c2)CC1`, the cytotoxicity at 70.5 h is 0.173%.

`CCC(CC)S(=O)(=O)NC(=O)c1ccc2c(c1)ncn2C`: the cytotoxicity at 70.5 h was -0.423%.

As to `COCCNC(=O)N1CC(Cc2ccccc2F)C1`, the cytotoxicity at 70.5 h is -4.03%.

Consider `COc1ccc(C)cc1C(C)NCc1cnnn1C` (configuration not stated), for which the cytotoxicity at 70.5 h is -1.22%.

Turning to `COc1ccc(C)cc1C(C)NCc1cccn1C` (configuration not stated), the cytotoxicity at 70.5 h was -0.611%.
